# Results published in patent US12209144B2, “Cyclic peptides as proprotein convertase subtilisin/kexin type 9 (PCSK9) inhibitors for the treatment of metabolic disorders” (Novartis AG, priority 2018, dated 2025).
# Bridge positions count the residues as written; N and C are the ends. Square brackets hold non-standard residues; d marks the D form. Peptide text beside a SMILES is read from it. Phe(3,4-Cl2) = N[C@@H](Cc1ccc(Cl)c(Cl)c1)C(=O)O; Bip = N[C@@H](Cc1ccc(-c2ccccc2)cc1)C(=O)O; NMeA = CN[C@@H](C)C(=O)O
# Target: human PCSK9 (Homo sapiens, UniProt Q8NBP7)
# Test: PCSK9 ligand binding assay (TR-FRET): interference with binding of human PCSK9 to human LDLR
# Details: PCSK9 FRET assay, efficacy (Amax); 0% = DMSO, 100% = 1 uM unlabeled human PCSK9
# Protocol: The activity of cyclic polypeptides according to the disclosure as PCSK9 can be assessed using a time resolved fluorescence resonance energy transfer (TR-FRET) assay. This time resolved fluorescence resonance energy transfer (TR-FRET) assay measures the ability of a cyclic polypeptides of the disclosure to interfere with the binding of human PCSK9 to human LDLR, providing measures of both potency (IC50) and efficacy (Amax).
# Solutions of varying concentrations are prepared by diluting a cyclic polypeptide of the disclosure in dimethylsulfoxide (DMSO) and the resulting solutions are pipetted into a plate. DMSO is used as a negative control. An intermediate plate is prepared in by transferring a known amount of each polypeptide solution and of the control from the compound plate into a corresponding well containing assay buffer and mixing thoroughly. A third plate is then prepared to be used for the assay by adding Human PCSK9 Alexa Fluor 647, followed by a known amount of each solution from the intermediate plate. Unlabeled human PCSK9 in assay buffer containing DMSO is used as a positive control for the assay. Following incubation, Human LDLR extracellular domain-Europium Kryptate is added to each well of the assay plate and the resulting mixture is incubated for an additional period of time. The TR-FRET signal is measured and the FRET ratio (FRET/Europium) is used to calculate the IC50 and Amax of the cyclic polypeptides.
# The PCSK9 binding of the cyclic polypeptides of the disclosure were measured using a time resolved fluorescence resonance energy transfer (TR-FRET) assay. This time resolved fluorescence resonance energy transfer (TR-FRET) assay measures the ability of a cyclic polypeptide of the disclosure to interfere with the binding of human PCSK9 to human LDLR, providing measures of both potency (IC50) and efficacy (Amax).
# • Human PCSK9 • Human PCSK9 Alexa Fluor 647 • Human LDLR extracellular domain-Europium Kryptate • Proxi plate-low volume assay plate (PerkinElmer #6008280) • Greiner V-bottom (Greiner BioOne #781280) • Assay Buffer • 20 mM HEPES, pH 7.5 • 150 mM NaCl • 1 mM CaCl2 • 0.01% v/v Tween20 • 0.01% w/v BSA
# A master compound plate was prepared in a Greiner V bottom plate by diluting cyclic polypeptides of the disclosure in dimethylsulfoxide to the correct concentration for the desired top concentration based on the desired final concentration: for a 30 uM final concentration the master plate concentration is 1.5 mM (68 uL DMSO+12 uL 10 mM of a cyclic polypeptide of the disclosure), for a 10 uM final concentration the master plate concentration is 0.5 mM (76 uL DMSO+4 uL 10 mM of a cyclic polypeptide of the disclosure), for a 3 uM final concentration the master plate concentration is 150 uM (69 uL DMSO+1 uL 10 mM a cyclic peptide of the disclosure). These solutions were pipetted into columns 1 and 11 of the compound plate. Threefold serial dilutions were generated in columns 2-10 and 12-20 of the compound plate by transferring 10 uL into 20 μL of DMSO. Columns 21 and 22 of the compound plate were negative controls containing DMSO alone.
# An intermediate plate was generated in a Greiner V bottom plate by transferring 8 uL from each well of the master plate into a corresponding well containing 92 μL of assay buffer and mixing thoroughly.
# A Proxi plate-low volume assay plate was used for the assay. To all wells of the plate was added 10 μL of 16 nM Human PCSK9 Alexa Fluor 647, followed by 5 uL from the intermediate plate. […] Following a 30 minute incubation, 5 μL of 4 nM Human LDLR extracellular domain-Europium Kryptate was added and the mixture was incubated for an additional 2 hours.
# The TR-FRET signal was measured on an EnVision or PheraStar instrument with a […] delay, 330 nm excitation and 665 nm emission (FRET), and 330 nm excitation and 615 nm (Europium). The FRET ratio (FRET/Europium) was used for calculations. […]
# Chain of human PCSK9 (Q8NBP7 153-692): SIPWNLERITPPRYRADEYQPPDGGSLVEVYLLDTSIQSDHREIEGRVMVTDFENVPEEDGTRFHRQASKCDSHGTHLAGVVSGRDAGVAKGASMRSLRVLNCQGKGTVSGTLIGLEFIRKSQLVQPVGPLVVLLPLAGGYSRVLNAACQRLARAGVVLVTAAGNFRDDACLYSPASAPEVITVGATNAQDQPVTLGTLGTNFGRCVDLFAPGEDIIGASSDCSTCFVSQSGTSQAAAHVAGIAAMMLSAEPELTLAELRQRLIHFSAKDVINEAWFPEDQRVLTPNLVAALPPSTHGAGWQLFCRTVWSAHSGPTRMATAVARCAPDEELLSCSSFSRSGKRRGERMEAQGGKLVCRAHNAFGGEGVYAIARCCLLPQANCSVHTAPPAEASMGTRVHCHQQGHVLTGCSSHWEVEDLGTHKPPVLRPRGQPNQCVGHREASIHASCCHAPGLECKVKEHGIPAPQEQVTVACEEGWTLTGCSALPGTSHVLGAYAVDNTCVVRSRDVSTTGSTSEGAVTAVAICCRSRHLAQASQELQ
# Chain of human PCSK9 (Q8NBP7 31-152 partner limits assumed): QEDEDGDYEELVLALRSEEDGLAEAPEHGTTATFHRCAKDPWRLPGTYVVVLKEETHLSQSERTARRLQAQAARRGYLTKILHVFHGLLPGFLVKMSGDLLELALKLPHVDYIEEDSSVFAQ
row,Maximum % inhibition [%],SMILES
1,36,"CC(C)[C@@H]1NC(=O)[C@H](Cc2ccccc2)NC(=O)CSC[C@@H](C(=O)NCC(N)=O)NC(=O)[C@@H]2CCCN2C(=O)[C@H](C)NC(=O)[C@H](CCCCN)NC(=O)[C@H](C)N(C)C(=O)[C@H](Cc2ccc(-c3ccccc3)cc2)NC(=O)[C@H](C)N(C)C(=O)[C@H](Cc2ccccc2)NC(=O)[C@H]([C@@H](C)O)NC(=O)[C@H]([C@@H](C)O)NC(=O)[C@H](CC(N)=O)NC1=O [Example 1-23, Ac*-F-V-N-T-T-F-(N-Me)A-B-(N-Me)A-K-A-P-C*-G-NH2] ({CH2CO}-FVNTTF[NMeA][Bip][NMeA]KAPCG-NH2; thioether N-13)"
2,70,"CC(C)[C@@H]1NC(=O)[C@H](Cc2ccccc2)NC(=O)CSC[C@@H](C(=O)NCC(N)=O)NC(=O)[C@@H]2CCCN2C(=O)[C@H](C)NC(=O)[C@H](CCC(=O)O)NC(=O)[C@H](C)N(C)C(=O)[C@H](Cc2ccc(-c3ccccc3)cc2)NC(=O)[C@H](C)N(C)C(=O)[C@H](Cc2ccccc2)NC(=O)[C@H]([C@@H](C)O)NC(=O)[C@H]([C@@H](C)O)NC(=O)[C@H](CO)NC1=O [Example 1-24, Ac*-F-V-S-T-T-F-(N-Me)A-B-(N-Me)A-E-A-P-C*-G-NH2] ({CH2CO}-FVSTTF[NMeA][Bip][NMeA]EAPCG-NH2; thioether N-13)"
3,68,"CC(C)[C@@H]1NC(=O)[C@H](Cc2ccccc2)NC(=O)CSC[C@@H](C(=O)NCC(N)=O)NC(=O)[C@@H]2CCCN2C(=O)[C@H](CO)NC(=O)[C@H](CCC(=O)O)NC(=O)[C@H](C)N(C)C(=O)[C@H](Cc2ccc(-c3ccccc3)cc2)NC(=O)[C@H](C)N(C)C(=O)[C@H](Cc2ccc(-c3ccccc3)cc2)NC(=O)[C@H]([C@@H](C)O)NC(=O)[C@H]([C@@H](C)O)NC(=O)[C@H](CO)NC1=O [Example 1-25, Ac*-F-V-S-T-T-B-(N-Me)A-B-(N-Me)A-E-S-P-C*-G-NH2] ({CH2CO}-FVSTT[Bip][NMeA][Bip][NMeA]ESPCG-NH2; thioether N-13)"
4,84,"CC(C)[C@@H]1NC(=O)[C@H](Cc2ccccc2)NC(=O)CSC[C@@H](C(=O)NCC(N)=O)NC(=O)[C@@H]2CCCN2C(=O)[C@H](CO)NC(=O)[C@H](CCC(=O)O)NC(=O)[C@H](C)N(C)C(=O)[C@H](Cc2ccc(Cl)c(Cl)c2)NC(=O)[C@H](C)N(C)C(=O)[C@H](Cc2ccc(-c3ccccc3)cc2)NC(=O)[C@H]([C@@H](C)O)NC(=O)[C@H]([C@@H](C)O)NC(=O)[C@H](CC(=O)O)NC1=O [Example 1-26, Ac*-F-V-D-T-T-B-(N-Me)A-(3,4-diCl)F-(N-Me)A-E-S-P-C*-G-NH2] ({CH2CO}-FVDTT[Bip][NMeA][Phe(3,4-Cl2)][NMeA]ESPCG-NH2; thioether N-13)"
5,55,"C[C@@H]1NC(=O)[C@H](C)N(C)C(=O)[C@H](Cc2ccc(-c3ccccc3)cc2)NC(=O)[C@H](C)N(C)C(=O)[C@H](Cc2ccccc2)NC(=O)[C@H]([C@@H](C)O)NC(=O)[C@H]([C@@H](C)O)NC(=O)[C@H](CC(N)=O)NC(=O)[C@H](CCC(=O)O)NC(=O)[C@H](Cc2ccccc2)NC(=O)CSC[C@@H](C(=O)NCC(N)=O)NC(=O)[C@@H]2CCCN2C(=O)[C@H](CO)NC1=O [Example 1-27, Ac*-F-E-N-T-T-F-(N-Me)A-B-(N-Me)A-A-S-P-C*-G-NH2] ({CH2CO}-FENTTF[NMeA][Bip][NMeA]ASPCG-NH2; thioether N-13)"

# Same assay, conditions: TR-FRET; Human PCSK9 Alexa Fluor 647 and Human LDLR extracellular domain-Europium Kryptate
row,IC50 [nM],SMILES
1,410,"C[C@@H]1NC(=O)[C@H](C)N(C)C(=O)[C@H](Cc2ccc(-c3ccccc3)cc2)NC(=O)[C@H](C)N(C)C(=O)[C@H](Cc2ccccc2)NC(=O)[C@H]([C@@H](C)O)NC(=O)[C@H]([C@@H](C)O)NC(=O)[C@H](CC(N)=O)NC(=O)[C@H](CCC(=O)O)NC(=O)[C@H](Cc2ccccc2)NC(=O)CSC[C@@H](C(=O)NCC(N)=O)NC(=O)[C@@H]2CCCN2C(=O)[C@H](CO)NC1=O [Example 1-27, Ac*-F-E-N-T-T-F-(N-Me)A-B-(N-Me)A-A-S-P-C*-G-NH2] ({CH2CO}-FENTTF[NMeA][Bip][NMeA]ASPCG-NH2; thioether N-13)"
